Laboratory results as given in PubChem BioAssay AID2060603 (Molecular Pharmacology Branch, DTP, NCI, 2025).
“And” between values parts separate entries of the source, which are not always exact repeats. Equal values may be shown once.

System: 422866-222-R5-J1-PDC spheroid viability
Test: Anticancer human tumor 422866-222-R5-J1-PDC patient-derived pancreatic adenocarcinoma cell line growth inhibition [CLK]
Details: spheroids with HUVEC and MSC; for viability, T/C: stronger effect = lower value
Procedure, shortened: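 Patient-derived tumor cells grown as complex spheroids with HUVEC endothelial cells and mesenchymal stem cells, treated with drug combinations. Concentrations descend in half-log steps from near clinical Cmax, or from 10 microM if Cmax unknown.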

[1] = curve of first compound, second compound 0.0316 µM
[2] = curve of first compound, second compound 0.1 µM
[3] = curve of first compound, second compound 0.316 µM
[4] = curve of first compound, second compound 1 µM
[5] = curve of first compound, second compound 3.16 µM
[6] = curve of first compound, second compound 10 µM
[7] = second compound 0.0316 µM, first compound 0.0316 µM
[8] = second compound 0.0316 µM, first compound 0.1 µM
[9] = second compound 0.0316 µM, first compound 0.316 µM
[10] = second compound 0.0316 µM, first compound 1 µM
[11] = second compound 0.0316 µM, first compound 3.16 µM
[12] = second compound 0.0316 µM, first compound 10 µM
[13] = second compound 0.1 µM, first compound 0.0316 µM
[14] = second compound 0.1 µM, first compound 0.1 µM
[15] = second compound 0.1 µM, first compound 0.316 µM
[16] = second compound 0.1 µM, first compound 1 µM
[17] = second compound 0.1 µM, first compound 3.16 µM
[18] = second compound 0.1 µM, first compound 10 µM
[19] = second compound 0.316 µM, first compound 0.0316 µM
[20] = second compound 0.316 µM, first compound 0.1 µM
[21] = second compound 0.316 µM, first compound 0.316 µM
[22] = second compound 0.316 µM, first compound 1 µM
[23] = second compound 0.316 µM, first compound 3.16 µM
[24] = second compound 0.316 µM, first compound 10 µM
[25] = second compound 1 µM, first compound 0.0316 µM
[26] = second compound 1 µM, first compound 0.1 µM
[27] = second compound 1 µM, first compound 0.316 µM
[28] = second compound 1 µM, first compound 1 µM
[29] = second compound 1 µM, first compound 3.16 µM
[30] = second compound 1 µM, first compound 10 µM
[31] = second compound 3.16 µM, first compound 0.0316 µM
[32] = second compound 3.16 µM, first compound 0.1 µM
[33] = second compound 3.16 µM, first compound 0.316 µM
[34] = second compound 3.16 µM, first compound 1 µM
[35] = second compound 3.16 µM, first compound 3.16 µM
[36] = second compound 3.16 µM, first compound 10 µM
[37] = second compound 10 µM, first compound 0.0316 µM
[38] = second compound 10 µM, first compound 0.1 µM
[39] = second compound 10 µM, first compound 0.316 µM
[40] = second compound 10 µM, first compound 1 µM
[41] = second compound 10 µM, first compound 3.16 µM
[42] = second compound 10 µM, first compound 10 µM
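Also: spheroids exposed to agents for seven days before readout.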

`C=CC(=O)N1CCN(c2nc(=O)n(-c3c(C)ccnc3C(C)C)c3nc(-c4c(O)cccc4F)c(F)cc23)C(C)C1` (stereo not drawn) + CNC(=O)c1ccc(Nc2nc(OC3CCCC3)c3c(-c4ccc5nc(C)oc5c4)c[nH]c3n2)c(OC)c1 gave an IC50 [1] of under 31.6 nM, an IC50 [2] of under 31.6 nM and an IC50 [3] of under 31.6 nM. The IC50 [4] was under 31.6 nM, the IC50 [5] was under 31.6 nM and the IC50 [6] was under 31.6 nM. The viability, T/C [7] was 36.8%, the viability, T/C [8] was 35.4% and the viability, T/C [9] was 29.5%. For the same compound, the viability, T/C [10] was 27.4%, the viability, T/C [11] was 23.5% and the viability, T/C [12] was 24.6%. The viability, T/C [13] was 34.6%, the viability, T/C [14] was 33.2% and the viability, T/C [15] was 27.6%. For the same compound, the viability, T/C [16] was 28.7%, the viability, T/C [17] was 26% and the viability, T/C [18] was 26.1%. It also gave a viability, T/C [19] of 34.9%, a viability, T/C [20] of 30.8% and a viability, T/C [21] of 27.1%. The viability, T/C [22] was 25.6%, the viability, T/C [23] was 24.8% and the viability, T/C [24] was 26.2%. For the same compound, the viability, T/C [25] was 35.7%, the viability, T/C [26] was 25.7% and the viability, T/C [27] was 28.8%. It also gave a viability, T/C [28] of 25.3%, a viability, T/C [29] of 31.9% and a viability, T/C [30] of 27.7%. It also gave a viability, T/C [31] of 32.3%, a viability, T/C [32] of 29.9% and a viability, T/C [33] of 28.3%. The viability, T/C [34] was 24.4%, the viability, T/C [35] was 27.6% and the viability, T/C [36] was 30.9%. It also gave a viability, T/C [37] of 32%, a viability, T/C [38] of 28.9% and a viability, T/C [39] of 27.8%. It also gave a viability, T/C [40] of 27.4%, a viability, T/C [41] of 29.9% and a viability, T/C [42] of 26.4%.

Work on `COc1ccc([C@@H](O)c2cc(-c3ncnc4cc(N5CCOCC5)ccc34)c(F)cc2Cl)nn1` + CN1CCN(c2cc(C(=O)Nc3cc4cc(-c5cnn(C)c5)ccc4cn3)ccn2)CC1 yielded an IC50 [1] of 5480 nM, an IC50 [2] of 5040 nM and an IC50 [3] of 7110 nM. For the same compound, the IC50 [4] was under 31.6 nM, the IC50 [5] was under 31.6 nM and the IC50 [6] was under 31.6 nM. For the same compound, the viability, T/C [7] was 116%, the viability, T/C [8] was 96.8% and the viability, T/C [9] was 88.8%. It also gave a viability, T/C [10] of 77.4%, a viability, T/C [11] of 59% and a viability, T/C [12] of 39.5%. For the same compound, the viability, T/C [13] was 114%, the viability, T/C [14] was 98.8% and the viability, T/C [15] was 94.3%. The viability, T/C [16] was 73.6%, the viability, T/C [17] was 56% and the viability, T/C [18] was 40.4%. It also gave a viability, T/C [19] of 98.7%, a viability, T/C [20] of 87.8% and a viability, T/C [21] of 81.4%. For the same compound, the viability, T/C [22] was 77.7%, the viability, T/C [23] was 52.9% and the viability, T/C [24] was 48%. The viability, T/C [25] was 18.2%, the viability, T/C [26] was 18.5% and the viability, T/C [27] was 22.9%. For the same compound, the viability, T/C [28] was 16.7%, the viability, T/C [29] was 20.9% and the viability, T/C [30] was 19.1%. For the same compound, the viability, T/C [31] was 7.87%, the viability, T/C [32] was 8.87% and the viability, T/C [33] was 9.25%. For the same compound, the viability, T/C [34] was 8.71%, the viability, T/C [35] was 11.4% and the viability, T/C [36] was 14.6%. It also gave a viability, T/C [37] of 1.27%, a viability, T/C [38] of 1.38% and a viability, T/C [39] of 1.7%. It also gave a viability, T/C [40] of 2.13%, a viability, T/C [41] of 3.04% and a viability, T/C [42] of 2.69%.

In the case of `CC1COCCN1c1cc(C2(S(C)(=N)=O)CC2)nc(-c2ccnc3[nH]ccc23)n1` (stereo not drawn), the viability, T/C (compound 0.0316 µM) is reported as 94.6% and 88.6%, the viability, T/C (compound 0.1 µM) is reported as 92.4% and 94.7% and the viability, T/C (compound 0.316 µM) is reported as 97.3% and 95.7%. For the same compound, the viability, T/C (compound 1 µM) was 94.2% and 94.3%, the viability, T/C (compound 3.16 µM) was 66.9% and 58.5% and the viability, T/C (compound 10 µM) was 54.5% and 47.8%. The IC50 (curve of compound) was > 10000 nM and 7890 nM.

With `CC(C)CC(NC(=O)C(Cc1ccccc1)NC(=O)c1cnccn1)B(O)O` (stereo not drawn) + CNC(=O)c1ccc(Nc2nc(OC3CCCC3)c3c(-c4ccc5nc(C)oc5c4)c[nH]c3n2)c(OC)c1 the IC50 [1] was 5.65 nM, the IC50 [2] was 5.52 nM and the IC50 [3] was 4.54 nM. The IC50 [4] was 4.19 nM, the IC50 [5] was 4.29 nM and the IC50 [6] was 4.12 nM. For the same compound, the viability, T/C (second compound 0.0316 µM, first compound 0.000949 µM) was 94%, the viability, T/C (second compound 0.0316 µM, first compound 0.003 µM) was 88.6% and the viability, T/C (second compound 0.0316 µM, first compound 0.00949 µM) was 18.5%. It also gave a viability, T/C (second compound 0.0316 µM, first compound 0.03 µM) of 2.14%, a viability, T/C (second compound 0.0316 µM, first compound 0.0949 µM) of 0.75% and a viability, T/C (second compound 0.0316 µM, first compound 0.3 µM) of 0.67%. For the same compound, the viability, T/C (second compound 0.1 µM, first compound 0.000949 µM) was 115%, the viability, T/C (second compound 0.1 µM, first compound 0.003 µM) was 90.8% and the viability, T/C (second compound 0.1 µM, first compound 0.00949 µM) was 13.8%. It also gave a viability, T/C (second compound 0.1 µM, first compound 0.03 µM) of 1.87%, a viability, T/C (second compound 0.1 µM, first compound 0.0949 µM) of 1.7% and a viability, T/C (second compound 0.1 µM, first compound 0.3 µM) of 1.33%. It also gave a viability, T/C (second compound 0.316 µM, first compound 0.000949 µM) of 108%, a viability, T/C (second compound 0.316 µM, first compound 0.003 µM) of 70.2% and a viability, T/C (second compound 0.316 µM, first compound 0.00949 µM) of 13.9%. The viability, T/C (second compound 0.316 µM, first compound 0.03 µM) was 1.54%, the viability, T/C (second compound 0.316 µM, first compound 0.0949 µM) was 0.87% and the viability, T/C (second compound 0.316 µM, first compound 0.3 µM) was 1.27%. It also gave a viability, T/C (second compound 1 µM, first compound 0.000949 µM) of 96.5%, a viability, T/C (second compound 1 µM, first compound 0.003 µM) of 67.8% and a viability, T/C (second compound 1 µM, first compound 0.00949 µM) of 6.77%. It also gave a viability, T/C (second compound 1 µM, first compound 0.03 µM) of 1.53%, a viability, T/C (second compound 1 µM, first compound 0.0949 µM) of 3.06% and a viability, T/C (second compound 1 µM, first compound 0.3 µM) of 2.68%. For the same compound, the viability, T/C (second compound 3.16 µM, first compound 0.000949 µM) was 86.8%, the viability, T/C (second compound 3.16 µM, first compound 0.003 µM) was 69.7% and the viability, T/C (second compound 3.16 µM, first compound 0.00949 µM) was 6.4%. It also gave a viability, T/C (second compound 3.16 µM, first compound 0.03 µM) of 1.59%, a viability, T/C (second compound 3.16 µM, first compound 0.0949 µM) of 1.4% and a viability, T/C (second compound 3.16 µM, first compound 0.3 µM) of 0.99%. The viability, T/C (second compound 10 µM, first compound 0.000949 µM) was 84.8%, the viability, T/C (second compound 10 µM, first compound 0.003 µM) was 66.5% and the viability, T/C (second compound 10 µM, first compound 0.00949 µM) was 6.65%. For the same compound, the viability, T/C (second compound 10 µM, first compound 0.03 µM) was 1.39%, the viability, T/C (second compound 10 µM, first compound 0.0949 µM) was 1.44% and the viability, T/C (second compound 10 µM, first compound 0.3 µM) was 1.32%.
